Experimental data from patent US9409866B2, “Pyridine-2-amides useful as CB2 agonists” (Hoffmann-La Roche Inc., priority 2012, dated 2016).
Read-outs that look alike come from different tables or passages of the source.

Legend:
[1] = target: human CB2 receptors (Homo sapiens (Human), UniProt P34972); test: functional cAMP assay, CHO cells expressing human CB2; format: cell-based
In short: (§1)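 CHO-hCB1/hCB2 cells, KRB + 1 mM IBMX preincubation 30 min 30 °C; cpd 30 min 30 °C; lysis + TR-FRET cAMP detection, 2 h RT; cAMP from std curve; EC50.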

[2] = target: human CB1 receptors (Homo sapiens (Human), UniProt P21554); test: functional cAMP assay, CHO cells expressing human CB1; format: cell-based
In short: as §1

[3] = functional cAMP assay, CHO cells expressing human CB1; read-out: Human CB1 EC50
[4] = Human CB1 EC50 (uM), functional cAMP assay, CHO cells expressing human CB1
[5] = read-out: Human CB1 EC50; functional cAMP assay, CHO cells expressing human CB1

Chain of human CB2 receptors (P34972 whole entry): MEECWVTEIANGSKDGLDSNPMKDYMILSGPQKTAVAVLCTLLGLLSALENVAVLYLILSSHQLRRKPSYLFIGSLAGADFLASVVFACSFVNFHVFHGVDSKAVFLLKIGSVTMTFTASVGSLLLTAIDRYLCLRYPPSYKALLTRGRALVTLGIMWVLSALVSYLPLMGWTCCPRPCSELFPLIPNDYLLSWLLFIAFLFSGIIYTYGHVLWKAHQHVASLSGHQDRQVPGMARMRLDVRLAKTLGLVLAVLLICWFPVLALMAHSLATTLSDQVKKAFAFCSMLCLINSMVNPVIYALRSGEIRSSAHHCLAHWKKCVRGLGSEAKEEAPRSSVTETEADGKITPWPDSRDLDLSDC
Chain of human CB1 receptors (P21554 whole entry): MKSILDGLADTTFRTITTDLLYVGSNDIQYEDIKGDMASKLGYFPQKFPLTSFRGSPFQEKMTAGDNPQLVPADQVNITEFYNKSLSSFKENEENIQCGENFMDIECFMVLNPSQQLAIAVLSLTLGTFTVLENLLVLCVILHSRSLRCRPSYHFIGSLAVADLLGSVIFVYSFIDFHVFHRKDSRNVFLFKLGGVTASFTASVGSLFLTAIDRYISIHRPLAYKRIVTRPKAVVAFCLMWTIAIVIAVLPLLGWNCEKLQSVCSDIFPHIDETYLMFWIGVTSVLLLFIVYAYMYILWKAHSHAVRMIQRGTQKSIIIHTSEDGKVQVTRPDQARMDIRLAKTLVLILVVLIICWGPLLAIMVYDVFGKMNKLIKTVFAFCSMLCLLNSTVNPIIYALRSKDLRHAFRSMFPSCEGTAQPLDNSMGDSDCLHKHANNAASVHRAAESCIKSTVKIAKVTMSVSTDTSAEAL

Row | Compound | EC50 ([1]; read-out: Human CB2 EC50) | EC50 [2, 3] | EC50 ([1]; Human CB2 EC50 (uM)) | EC50 [2, 4] | EC50 [2, 5]
1 | C[C@H](Oc1cc(C(=O)NC(C)(CC(N)=O)C2CC2)ncc1C1CC1)C(F)(F)F (stereo partly drawn) [Example 248, N-(4-amino-2-cyclopropyl-4-oxobutan-2-yl)-5-cyclopropyl-4-[(2S)-1,1,1-trifluoropropan-2-yl]oxypyridine-2-carboxamide] | 0.0009 µM | > 10 µM | – | – | –
2 | CC(C)(O)CNC(=O)c1cc(OCC2CC2)c(C2CC2)cn1 [Example 59, 5-Cyclopropyl-4-cyclopropylmethoxy-pyridine-2-carboxylic acid (2-hydroxy-2-methyl-propyl)-amide] | 0.0816 µM | > 10 µM | – | – | –
3 | C[C@H](Oc1cc(C(=O)NC(C(=O)N(C)C)C(C)(C)C)ncc1C1CC1)C(F)(F)F (stereo partly drawn) [Example 201, 5-cyclopropyl-N-[1-(dimethylamino)-3,3-dimethyl-1-oxobutan-2-yl]-4-[(2S)-1,1,1-trifluoropropan-2-yl]oxypyridine-2-carboxamide] | 0.0024 µM | > 10 µM | – | – | –
4 | CNC(=O)C(NC(=O)c1cc(O[C@@H](C)C(F)(F)F)c(C2CC2)cn1)C(C)(C)C (stereo partly drawn) [Example 200, 5-cyclopropyl-N-[3,3-dimethyl-1-(methylamino)-1-oxobutan-2-yl]-4-[(2S)-1,1,1-trifluoropropan-2-yl]oxypyridine-2-carboxamide] | 0.0026 µM | > 10 µM | – | – | –
5 | CC(C)(C)C(NC(=O)c1cc(OCC(F)(F)F)c(C2CC2)cn1)c1noc(N)n1 (single isomer, unassigned) [Example 226, N-[1-(5-amino-1,2,4-oxadiazol-3-yl)-2,2-dimethylpropyl]-5-cyclopropyl-4-(2,2,2-trifluoroethoxy)pyridine-2-carboxamide] | – | – | 0.0065 µM | > 10 µM | –
6 | CC(C)(C#N)NC(=O)c1cc(OCC2CC2)c(Cl)cn1 [Example 8, 5-Chloro-4-cyclopropylmethoxy-pyridine-2-carboxylic acid (cyano-dimethyl-methyl)-amide] | 0.159 µM | > 10 µM | – | – | –
7 | Cc1nc(C(C)(CC2CC2)NC(=O)c2cc(OCC(F)(F)F)c(C3(F)COC3)cn2)no1 (single isomer, unassigned) [Example 136, N-[1-cyclopropyl-2-(5-methyl-1,2,4-oxadiazol-3-yl)propan-2-yl]-5-(3-fluorooxetan-3-yl)-4-(2,2,2-trifluoroethoxy)pyridine-2-carboxamide] | – | – | 0.125 µM | – | > 10 µM
8 | Cc1nc(C(C)(CC(C)(C)C)NC(=O)c2cc(OCC(F)(F)F)c(C3CC3)cn2)no1 (stereo not shown) [Example 97, 5-Cyclopropyl-4-(2,2,2-trifluoro-ethoxy)-pyridine-2-carboxylic acid [1,3,3-trimethyl-1-(5-methyl-[1,2,4]oxadiazol-3-yl)-butyl]-amide] | 0.0059 µM | > 10 µM | – | – | –
9 | C[C@H](Oc1cc(C(=O)NC(C)(CC(N)=O)C2CC2)ncc1C1CC1)C(F)(F)F (stereo partly drawn) [Example 259, N-(4-amino-2-cyclopropyl-4-oxobutan-2-yl)-5-cyclopropyl-4-[(2S)-1,1,1-trifluoropropan-2-yl]oxypyridine-2-carboxamide] | 0.0005 µM | > 10 µM | – | – | –
10 | C[C@H](Oc1cc(C(=O)NC(c2noc(N)n2)C(C)(C)C)ncc1C1CC1)C(F)(F)F (stereo partly drawn) [Example 219, N-[1-(5-amino-1,2,4-oxadiazol-3-yl)-2,2-dimethylpropyl]-5-cyclopropyl-4-[(2S)-1,1,1-trifluoropropan-2-yl]oxypyridine-2-carboxamide] | 0.001 µM | > 10 µM | – | – | –
11 | Cc1nc(C(C)(CC2CC2)NC(=O)c2cc(O[C@@H](C)C(F)(F)F)c(C3CCC3)cn2)no1 (stereo partly drawn) [Example 110, 5-Cyclobutyl-4-((S)-2,2,2-trifluoro-1-methyl-ethoxy)-pyridine-2-carboxylic acid [2-cyclopropyl-1-methyl-1-(5-methyl-[1,2,4]oxadiazol-3-yl)-ethyl]-amide] | 0.0008 µM | 0.31 µM | – | – | –
12 | Cc1nnc(C(C)(CC2COC2)NC(=O)c2cc(O[C@@H](C)C(F)(F)F)c(C3CC3)cn2)o1 (stereo partly drawn) [Example 190, 5-cyclopropyl-N-[2-(5-methyl-1,3,4-oxadiazol-2-yl)-1-(oxetan-3-yl)propan-2-yl]-4-[(2S)-1,1,1-trifluoropropan-2-yl]oxypyridine-2-carboxamide] | 0.559 µM | > 10 µM | – | – | –
13 | CNC(=O)CC(C)(NC(=O)c1cc(O[C@@H](C)C(F)(F)F)c(C2CC2)cn1)C1CC1 (stereo partly drawn) [Example 249, 5-cyclopropyl-N-[2-cyclopropyl-4-(methylamino)-4-oxobutan-2-yl]-4-[(2S)-1,1,1-trifluoropropan-2-yl]oxypyridine-2-carboxamide] | 0.001 µM | > 10 µM | – | – | –
14 | O=C(NC1(c2nccs2)COC1)c1cc(OCC2CC2)c(C2CC2)cn1 [Example 42, 5-Cyclopropyl-4-cyclopropylmethoxy-pyridine-2-carboxylic acid (3-thiazol-2-yl-oxetan-3-yl)-amide] | 0.0116 µM | > 10 µM | – | – | –
15 | CNC(=O)CC1(NC(=O)c2cc(O[C@@H](C)C(F)(F)F)c(C3CC3)cn2)COC1 [Example 232, 5-cyclopropyl-N-[3-[2-(methylamino)-2-oxoethyl]oxetan-3-yl]-4-[(2S)-1,1,1-trifluoropropan-2-yl]oxypyridine-2-carboxamide] | 0.116 µM | > 10 µM | – | – | –
16 | Cc1nc(C(C)(NC(=O)c2cc(O[C@@H](C)C(F)(F)F)c(N3CC(F)(F)C3)cn2)C2CC2)no1 (stereo partly drawn) [Example 96, 5-(3,3-Difluoro-azetidin-1-yl)-4-((S)-2,2,2-trifluoro-1-methyl-ethoxy)-pyridine-2-carboxylic acid [1-cyclopropyl-1-(5-methyl-[1,2,4]oxadiazol-3-yl)-ethyl]-amide] | 0.0014 µM | 0.11 µM | – | – | –
17 | Cc1nc(C(C)(CS(C)(=O)=O)NC(=O)c2cc(OCC(F)(F)F)c(C3(F)COC3)cn2)no1 (single isomer, unassigned) [Example 133, 5-(3-fluorooxetan-3-yl)-N-[2-(5-methyl-1,2,4-oxadiazol-3-yl)-1-methylsulfonylpropan-2-yl]-4-(2,2,2-trifluoroethoxy)pyridine-2-carboxamide] | 0.568 µM | – | – | – | > 10 µM
18 | CN(C)C(=O)C(NC(=O)c1cc(OCC(F)(F)F)c(C2CC2)cn1)C(C)(C)C (stereo not shown) [Example 195, 5-cyclopropyl-N-[1-(dimethylamino)-3,3-dimethyl-1-oxobutan-2-yl]-4-(2,2,2-trifluoroethoxy)pyridine-2-carboxamide] | 0.0034 µM | > 10 µM | – | – | –
19 | CNC(=O)CC1(NC(=O)c2cc(OCC(F)(F)F)c(C3CC3)cn2)COC1 [Example 231, 5-cyclopropyl-N-[3-[2-(methylamino)-2-oxoethyl]oxetan-3-yl]-4-(2,2,2-trifluoroethoxy)pyridine-2-carboxamide] | 0.547 µM | > 10 µM | – | – | –
20 | C[C@H](Oc1cc(C(=O)NC(c2nnn(C)n2)C(C)(C)C)ncc1C1CC1)C(F)(F)F (stereo partly drawn) [Example 216, 5-cyclopropyl-N-[2,2-dimethyl-1-(2-methyltetrazol-5-yl)propyl]-4-[(2S)-1,1,1-trifluoropropan-2-yl]oxypyridine-2-carboxamide] | 0.0047 µM | > 10 µM | – | – | –
21 | Cc1nc(C(C)(COCc2ccccc2)NC(=O)c2cc(OCC(F)(F)F)c(C3CC3)cn2)no1 (stereo not shown) [Example 112, 5-cyclopropyl-N-[2-(5-methyl-1,2,4-oxadiazol-3-yl)-1-phenylmethoxypropan-2-yl]-4-(2,2,2-trifluoroethoxy)pyridine-2-carboxamide] | 0.0436 µM | > 10 µM | – | – | –
22 | CC(CF)Oc1cc(C(=O)NC2(CC(N)=O)CS(=O)(=O)C2)ncc1C1CC1 (single isomer, unassigned) [Example 292, N-[3-(2-amino-2-oxoethyl)-1,1-dioxothietan-3-yl]-5-cyclopropyl-4-[1-fluoropropan-2-yl]oxypyridine-2-carboxamide] | – | – | 0.0019 µM | – | > 10 µM
23 | CC(CC(N)=O)(NC(=O)c1cc(OCCF)c(C2CC2)cn1)C1CC1 (single isomer, unassigned) [Example 270, N-[4-amino-2-cyclopropyl-4-oxobutan-2-yl]-5-cyclopropyl-4-(2-fluoroethoxy)pyridine-2-carboxamide] | – | – | 0.0689 µM | > 10 µM | –
24 | Cc1nc([C@@](C)(CC2CC2)NC(=O)c2cc(OCC(F)(F)F)c(Cl)cn2)no1 (single isomer, unassigned) [Example 93, 5-Chloro-4-(2,2,2-trifluoro-ethoxy)-pyridine-2-carboxylic acid [2-cyclopropyl-1-methyl-1-(5-methyl-[1,2,4]oxadiazol-3-yl)-ethyl]-amide] | – | – | 0.0651 µM | > 10 µM | –
25 | CNC(=O)[C@H](C)C(C)(C)NC(=O)c1cc(OCC2CC2)c(Cl)cn1 [Example 35, (+)-5-Chloro-4-cyclopropylmethoxy-pyridine-2-carboxylic acid (1,1-dimethyl-2-methylcarbamoyl-propyl)-amide] | 0.143 µM | > 10 µM | – | – | –
26 | Cc1nc(C(C)(CC2CC2)NC(=O)c2cc(OCCF)c(C3CC3)cn2)no1 (stereo not shown) [Example 146, 5-cyclopropyl-N-[1-cyclopropyl-2-(5-methyl-1,2,4-oxadiazol-3-yl)propan-2-yl]-4-(2-fluoroethoxy)pyridine-2-carboxamide] | 0.0018 µM | > 10 µM | – | – | –
